By MIC is commonly meant the least concentration at which growth counts as inhibited. High values mean weaker potency, low ones greater potency.

Values after ≈ are worked out from the molar mass of the structure shown.

MIC data for 36 compounds are collected here from ChEMBL document CHEMBL1933046, “Synthesis and antibacterial activity of a novel series of acylides active against community acquired respiratory pathogens” (2012).

The test relates to Streptococcus pneumoniae. In words: Antibacterial activity against Streptococcus pneumoniae by NCCLS method. The test is classed as functional.
`C#CCN(C)[C@H]1C[C@@H](C)O[C@@H](O[C@@H]2[C@@H](C)[C@H](OC(=O)Cc3cccnc3)[C@@H](C)C(=O)O[C@H](CC)[C@@](C)(O)[C@H](O)[C@@H](C)C(=O)[C@H](C)C[C@@]2(C)OC)[C@@H]1O` displayed an MIC of 2 µg/mL (≈ 2.73 µM). Under `C=CCN(C)[C@H]1C[C@@H](C)O[C@@H](O[C@@H]2[C@@H](C)[C@H](OC(=O)Cc3cccc([N+](=O)[O-])c3)[C@@H](C)C(=O)O[C@H](CC)[C@@](C)(O)[C@H](O)[C@@H](C)C(=O)[C@H](C)C[C@@]2(C)OC)[C@@H]1O` stands 0.06 µg/mL (≈ 0.077 µM); under `CC[C@H]1OC(=O)[C@H](C)[C@@H](OC(=O)Cc2ccccc2F)[C@H](C)[C@@H](O[C@@H]2O[C@H](C)C[C@H](N(C)CC)[C@H]2O)[C@](C)(OC)C[C@@H](C)C(=O)[C@H](C)[C@@H](O)[C@]1(C)O`, 0.25 µg/mL (≈ 0.338 µM). `CC[C@H]1OC(=O)[C@H](C)[C@@H](OC(=O)Cc2cccc(F)c2)[C@H](C)[C@@H](O[C@@H]2O[C@H](C)C[C@H](N(C)CC3CC3)[C@H]2O)[C@](C)(OC)C[C@@H](C)C(=O)[C@H](C)[C@@H](O)[C@]1(C)O` returned an MIC of 8 µg/mL (≈ 10.4 µM).

As to `CC[C@H]1OC(=O)[C@H](C)[C@@H](OC(=O)Cc2ccc(F)cc2)[C@H](C)[C@@H](O[C@@H]2O[C@H](C)C[C@H](N(C)Cc3ccccc3)[C@H]2O)[C@](C)(OC)C[C@@H](C)C(=O)[C@H](C)[C@@H](O)[C@]1(C)O`, the lowest concentration to inhibit growth (MIC) was 1 µg/mL (≈ 1.25 µM). `C=CCN(C)[C@H]1C[C@@H](C)O[C@@H](O[C@@H]2[C@@H](C)[C@H](OC(=O)Cc3ccc(F)cc3)[C@@H](C)C(=O)O[C@H](CC)[C@@](C)(O)[C@H](O)[C@@H](C)C(=O)[C@H](C)C[C@@]2(C)OC)[C@@H]1O`: inhibition of growth (MIC) required 0.5 µg/mL (≈ 0.665 µM). In the case of `CC[C@H]1OC(=O)[C@H](C)[C@@H](OC(=O)Cc2ccccc2F)[C@H](C)[C@@H](O[C@@H]2O[C@H](C)C[C@H](N(C)C3CC3)[C@H]2O)[C@](C)(OC)C[C@@H](C)C(=O)[C@H](C)[C@@H](O)[C@]1(C)O` it was 16 µg/mL (≈ 21.3 µM); in that of `CC[C@H]1OC(=O)[C@H](C)[C@@H](OC(=O)Cc2cccc([N+](=O)[O-])c2)[C@H](C)[C@@H](O[C@@H]2O[C@H](C)C[C@H](N(C)CC)[C@H]2O)[C@](C)(OC)C[C@@H](C)C(=O)[C@H](C)[C@@H](O)[C@]1(C)O`, 0.25 µg/mL (≈ 0.326 µM). Under `CC[C@H]1OC(=O)[C@H](C)[C@@H](OC(=O)Cc2ccccn2)[C@H](C)[C@@H](O[C@@H]2O[C@H](C)C[C@H](N(C)CC3CC3)[C@H]2O)[C@](C)(OC)C[C@@H](C)C(=O)[C@H](C)[C@@H](O)[C@]1(C)O` stands above 16 µg/mL; under `CC[C@H]1OC(=O)[C@H](C)[C@@H](OC(=O)Cc2ccc([N+](=O)[O-])cc2)[C@H](C)[C@@H](O[C@@H]2O[C@H](C)C[C@H](N(C)CC3CC3)[C@H]2O)[C@](C)(OC)C[C@@H](C)C(=O)[C@H](C)[C@@H](O)[C@]1(C)O`, 1 µg/mL (≈ 1.26 µM); under `C=CCN(C)[C@H]1C[C@@H](C)O[C@@H](O[C@@H]2[C@@H](C)[C@H](OC(=O)Cc3ccncc3)[C@@H](C)C(=O)O[C@H](CC)[C@@](C)(O)[C@H](O)[C@@H](C)C(=O)[C@H](C)C[C@@]2(C)OC)[C@@H]1O`, 0.5 µg/mL (≈ 0.68 µM). The compound `C#CCN(C)[C@H]1C[C@@H](C)O[C@@H](O[C@@H]2[C@@H](C)[C@H](OC(=O)Cc3ccccc3F)[C@@H](C)C(=O)O[C@H](CC)[C@@](C)(O)[C@H](O)[C@@H](C)C(=O)[C@H](C)C[C@@]2(C)OC)[C@@H]1O` registered an MIC of 0.5 µg/mL (≈ 0.667 µM).

In turn, `CC[C@H]1OC(=O)[C@H](C)[C@@H](OC(=O)Cc2cccnc2)[C@H](C)[C@@H](O[C@@H]2O[C@H](C)C[C@H](N(C)CC)[C@H]2O)[C@](C)(OC)C[C@@H](C)C(=O)[C@H](C)[C@@H](O)[C@]1(C)O` returned an MIC of 0.5 µg/mL (≈ 0.692 µM).

With `C#CCN(C)[C@H]1C[C@@H](C)O[C@@H](O[C@@H]2[C@@H](C)[C@H](OC(=O)Cc3ccccc3[N+](=O)[O-])[C@@H](C)C(=O)O[C@H](CC)[C@@](C)(O)[C@H](O)[C@@H](C)C(=O)[C@H](C)C[C@@]2(C)OC)[C@@H]1O`, the MIC was 2 µg/mL (≈ 2.57 µM). The compound `CC[C@H]1OC(=O)[C@H](C)[C@@H](OC(=O)Cc2ccncc2)[C@H](C)[C@@H](O[C@@H]2O[C@H](C)C[C@H](N(C)C3CC3)[C@H]2O)[C@](C)(OC)C[C@@H](C)C(=O)[C@H](C)[C@@H](O)[C@]1(C)O` came in with an MIC above 32 µg/mL. The compound `CC[C@H]1OC(=O)[C@H](C)[C@@H](OC(=O)Cc2ccccc2F)[C@H](C)[C@@H](O[C@@H]2O[C@H](C)C[C@H](N(C)Cc3ccccc3)[C@H]2O)[C@](C)(OC)C[C@@H](C)C(=O)[C@H](C)[C@@H](O)[C@]1(C)O` had an MIC of 0.5 µg/mL (≈ 0.623 µM). Turning to `CC[C@H]1OC(=O)[C@H](C)[C@@H](OC(=O)Cc2ccccc2F)[C@H](C)[C@@H](O[C@@H]2O[C@H](C)C[C@H](N(C)CC3CC3)[C@H]2O)[C@](C)(OC)C[C@@H](C)C(=O)[C@H](C)[C@@H](O)[C@]1(C)O`, the MIC was 8 µg/mL (≈ 10.4 µM).

Turning to `CC[C@H]1OC(=O)[C@H](C)[C@@H](OC(=O)Cc2ccc([N+](=O)[O-])cc2)[C@H](C)[C@@H](O[C@@H]2O[C@H](C)C[C@H](N(C)CC)[C@H]2O)[C@](C)(OC)C[C@@H](C)C(=O)[C@H](C)[C@@H](O)[C@]1(C)O`, the MIC was found to be 0.5 µg/mL (≈ 0.652 µM). Under `CC[C@H]1OC(=O)[C@H](C)[C@@H](OC(=O)Cc2ccccn2)[C@H](C)[C@@H](O[C@@H]2O[C@H](C)C[C@H](N(C)C3CC3)[C@H]2O)[C@](C)(OC)C[C@@H](C)C(=O)[C@H](C)[C@@H](O)[C@]1(C)O` stands above 32 µg/mL; under `C=CCN(C)[C@H]1C[C@@H](C)O[C@@H](O[C@@H]2[C@@H](C)[C@H](OC(=O)Cc3ccccn3)[C@@H](C)C(=O)O[C@H](CC)[C@@](C)(O)[C@H](O)[C@@H](C)C(=O)[C@H](C)C[C@@]2(C)OC)[C@@H]1O`, 0.25 µg/mL (≈ 0.34 µM); under `C#CCN(C)[C@H]1C[C@@H](C)O[C@@H](O[C@@H]2[C@@H](C)[C@H](OC(=O)Cc3ccccn3)[C@@H](C)C(=O)O[C@H](CC)[C@@](C)(O)[C@H](O)[C@@H](C)C(=O)[C@H](C)C[C@@]2(C)OC)[C@@H]1O`, 4 µg/mL (≈ 5.46 µM). In the case of `CC[C@H]1OC(=O)[C@H](C)[C@@H](OC(=O)Cc2cccc(F)c2)[C@H](C)[C@@H](O[C@@H]2O[C@H](C)C[C@H](N(C)Cc3ccccc3)[C@H]2O)[C@](C)(OC)C[C@@H](C)C(=O)[C@H](C)[C@@H](O)[C@]1(C)O`, the MIC is 1 µg/mL (≈ 1.25 µM). Compound `C#CCN(C)[C@H]1C[C@@H](C)O[C@@H](O[C@@H]2[C@@H](C)[C@H](OC(=O)Cc3cccc([N+](=O)[O-])c3)[C@@H](C)C(=O)O[C@H](CC)[C@@](C)(O)[C@H](O)[C@@H](C)C(=O)[C@H](C)C[C@@]2(C)OC)[C@@H]1O` yielded an MIC of 1 µg/mL (≈ 1.29 µM). Turning to `CC[C@H]1OC(=O)[C@H](C)[C@@H](OC(=O)Cc2ccccc2[N+](=O)[O-])[C@H](C)[C@@H](O[C@@H]2O[C@H](C)C[C@H](N(C)CC3CC3)[C@H]2O)[C@](C)(OC)C[C@@H](C)C(=O)[C@H](C)[C@@H](O)[C@]1(C)O`, the lowest concentration to inhibit growth (MIC) was 1 µg/mL (≈ 1.26 µM). In the case of `CC[C@H]1OC(=O)[C@H](C)[C@@H](OC(=O)Cc2ccncc2)[C@H](C)[C@@H](O[C@@H]2O[C@H](C)C[C@H](N(C)CC3CC3)[C@H]2O)[C@](C)(OC)C[C@@H](C)C(=O)[C@H](C)[C@@H](O)[C@]1(C)O` it was 32 µg/mL (≈ 42.7 µM). `CC[C@H]1OC(=O)[C@H](C)[C@@H](OC(=O)Cc2cccc(F)c2)[C@H](C)[C@@H](O[C@@H]2O[C@H](C)C[C@H](N(C)CC)[C@H]2O)[C@](C)(OC)C[C@@H](C)C(=O)[C@H](C)[C@@H](O)[C@]1(C)O` gave an MIC of 0.125 µg/mL (≈ 0.169 µM). In the case of `C#CCN(C)[C@H]1C[C@@H](C)O[C@@H](O[C@@H]2[C@@H](C)[C@H](OC(=O)Cc3cccc(F)c3)[C@@H](C)C(=O)O[C@H](CC)[C@@](C)(O)[C@H](O)[C@@H](C)C(=O)[C@H](C)C[C@@]2(C)OC)[C@@H]1O` it was 2 µg/mL (≈ 2.67 µM); in that of `CC[C@H]1OC(=O)[C@H](C)[C@@H](OC(=O)Cc2ccc(F)cc2)[C@H](C)[C@@H](O[C@@H]2O[C@H](C)C[C@H](N(C)C3CC3)[C@H]2O)[C@](C)(OC)C[C@@H](C)C(=O)[C@H](C)[C@@H](O)[C@]1(C)O`, 32 µg/mL (≈ 42.6 µM).

Compound `CC[C@H]1OC(=O)[C@H](C)[C@@H](OC(=O)Cc2ccc(F)cc2)[C@H](C)[C@@H](O[C@@H]2O[C@H](C)C[C@H](N(C)CC)[C@H]2O)[C@](C)(OC)C[C@@H](C)C(=O)[C@H](C)[C@@H](O)[C@]1(C)O` yielded an MIC of 0.5 µg/mL (≈ 0.676 µM). `CC[C@H]1OC(=O)[C@H](C)[C@@H](OC(=O)Cc2cccc(F)c2)[C@H](C)[C@@H](O[C@@H]2O[C@H](C)C[C@H](N(C)Cc3ccc(F)cc3)[C@H]2O)[C@](C)(OC)C[C@@H](C)C(=O)[C@H](C)[C@@H](O)[C@]1(C)O` came in with an MIC of 2 µg/mL (≈ 2.44 µM). Regarding `C=CCN(C)[C@H]1C[C@@H](C)O[C@@H](O[C@@H]2[C@@H](C)[C@H](OC(=O)Cc3ccccc3F)[C@@H](C)C(=O)O[C@H](CC)[C@@](C)(O)[C@H](O)[C@@H](C)C(=O)[C@H](C)C[C@@]2(C)OC)[C@@H]1O`, the lowest concentration to inhibit growth (MIC) was 0.25 µg/mL (≈ 0.332 µM). Compound `C=CCN(C)[C@H]1C[C@@H](C)O[C@@H](O[C@@H]2[C@@H](C)[C@H](OC(=O)Cc3ccccc3[N+](=O)[O-])[C@@H](C)C(=O)O[C@H](CC)[C@@](C)(O)[C@H](O)[C@@H](C)C(=O)[C@H](C)C[C@@]2(C)OC)[C@@H]1O` registered an MIC of 0.25 µg/mL (≈ 0.321 µM). The compound `CC[C@H]1OC(=O)[C@H](C)[C@@H](OC(=O)Cc2cccc(F)c2)[C@H](C)[C@@H](O[C@@H]2O[C@H](C)C[C@H](N(C)C3CC3)[C@H]2O)[C@](C)(OC)C[C@@H](C)C(=O)[C@H](C)[C@@H](O)[C@]1(C)O` came in with an MIC above 16 µg/mL. For `CC[C@H]1OC(=O)[C@H](C)[C@@H](OC(=O)Cc2ccccn2)[C@H](C)[C@@H](O[C@@H]2O[C@H](C)C[C@H](N(C)CC)[C@H]2O)[C@](C)(OC)C[C@@H](C)C(=O)[C@H](C)[C@@H](O)[C@]1(C)O`, the MIC was determined as 0.25 µg/mL (≈ 0.346 µM). `CC[C@H]1OC(=O)[C@H](C)[C@@H](OC(=O)Cc2ccc([N+](=O)[O-])cc2)[C@H](C)[C@@H](O[C@@H]2O[C@H](C)C[C@H](N(C)C3CC3)[C@H]2O)[C@](C)(OC)C[C@@H](C)C(=O)[C@H](C)[C@@H](O)[C@]1(C)O` returned an MIC above 32 µg/mL.

As for `CC[C@H]1OC(=O)[C@H](C)[C@@H](OC(=O)Cc2cccnc2)[C@H](C)[C@@H](O[C@@H]2O[C@H](C)C[C@H](N(C)Cc3ccccc3)[C@H]2O)[C@](C)(OC)C[C@@H](C)C(=O)[C@H](C)[C@@H](O)[C@]1(C)O`, the MIC was 0.25 µg/mL (≈ 0.318 µM).
